Measurements: ChEMBL document CHEMBL6178010, “XPO1-Targeting Selective Inhibitors of Transcriptional Activation Suppress Graft-versus-Host Disease” (J Med Chem, 2025)
Blank lines part the entries; values can stand above or below the compound they belong to. Activity calls are given as the source filed them. The calls are words filed in the database; no cut-off is given here.

Experiments:
Exportin-1 [1] = target: T1, Exportin-1 (Homo sapiens, UniProt O14980); assay: Inhibition of XPO1 in PMA/ionomycin-activated human Jurkat cells expressing IL-2 promoter reporter gene assessed as suppression of IL-2 transcriptional activity incubated for 6 hrs by Bright-Glo Luciferase assay; type: cell-based
T1 sequence (O14980 whole entry): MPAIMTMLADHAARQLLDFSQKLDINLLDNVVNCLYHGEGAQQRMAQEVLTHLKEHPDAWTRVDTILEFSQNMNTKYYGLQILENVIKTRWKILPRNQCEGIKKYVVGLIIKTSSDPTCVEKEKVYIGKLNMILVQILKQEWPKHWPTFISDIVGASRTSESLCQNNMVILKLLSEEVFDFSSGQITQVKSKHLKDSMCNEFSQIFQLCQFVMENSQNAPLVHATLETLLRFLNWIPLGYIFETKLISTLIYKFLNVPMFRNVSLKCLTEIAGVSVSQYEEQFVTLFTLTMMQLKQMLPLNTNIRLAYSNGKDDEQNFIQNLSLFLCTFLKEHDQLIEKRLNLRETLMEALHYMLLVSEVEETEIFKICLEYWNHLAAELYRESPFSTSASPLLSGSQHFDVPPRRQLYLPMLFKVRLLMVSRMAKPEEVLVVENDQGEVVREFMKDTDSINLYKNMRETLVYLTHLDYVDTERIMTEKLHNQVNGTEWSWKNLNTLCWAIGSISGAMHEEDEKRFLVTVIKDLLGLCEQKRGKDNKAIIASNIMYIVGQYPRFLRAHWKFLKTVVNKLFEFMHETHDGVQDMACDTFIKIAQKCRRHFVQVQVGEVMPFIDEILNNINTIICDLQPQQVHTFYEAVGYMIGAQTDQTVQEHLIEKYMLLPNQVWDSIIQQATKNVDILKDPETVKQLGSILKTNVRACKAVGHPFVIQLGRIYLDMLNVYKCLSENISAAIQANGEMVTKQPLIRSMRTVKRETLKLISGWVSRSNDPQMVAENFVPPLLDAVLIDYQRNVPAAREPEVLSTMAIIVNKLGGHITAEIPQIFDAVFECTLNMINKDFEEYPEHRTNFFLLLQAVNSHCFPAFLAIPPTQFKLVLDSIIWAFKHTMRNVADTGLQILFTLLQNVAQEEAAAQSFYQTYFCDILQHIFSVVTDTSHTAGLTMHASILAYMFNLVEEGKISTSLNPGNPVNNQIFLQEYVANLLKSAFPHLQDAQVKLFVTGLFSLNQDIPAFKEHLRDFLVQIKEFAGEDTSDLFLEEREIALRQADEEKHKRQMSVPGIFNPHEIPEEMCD

Jurkat [2] = assay: Cytotoxicity against human Jurkat cells assessed as suppression of cell viability incubated for 24 hrs by CellTiter-Glo assay; type: functional, cell-based
XPO1 = assay: Selectivity ratio of EC50 for cytotoxicity against human Jurkat cells assessed as suppression of cell viability to EC50 for inhibition of XPO1 in PMA/ionomycin-activated human Jurkat cells expressing IL-2 promoter reporter gene assessed as suppression of IL-2 transcriptional activity; type: toxicity, cell-based; conditions: read-out: Ratio EC50
Jurkat [3] = assay: Downregulation of IL-2 mRNA level in PMA/ionomycin-activated human Jurkat cells expressing XPO1 C528S mutant at 100 nM incubated for 6 hrs by RT-qPCR analysis; type: functional, cell-based
Jurkat [4] = assay: Cytotoxicity against human Jurkat cells expressing XPO1 C528S mutant assessed as suppression of cell viability up to 10000 nM incubated for 24 hrs by CellTiter-Glo assay; type: functional, cell-based
Exportin-1 [5] = target: T1, Exportin-1; assay: Inhibition of selinexor-alkyne binding to XPO1 at Cys528 in human Jurkat cells up to 10 nM pretreated for 1 hr followed by addition of selinexor-alkyne measured after 1 hr by In-gel fluorescence analysis; type: cell-based; conditions: time 2.0 hrs
Exportin-1 [6] = target: T1, Exportin-1; assay: Covalent binding affinity to XPO1 in human Jurkat cells at 4 to 1000 nM by In-gel fluorescence analysis; type: cell-based; conditions: dose 4-1000 nM
[7] = target: Exportin-1 (Mus musculus) (UniProt Q6P5F9); assay: In vivo binding affinity to XPO1 in mouse spleen at 1 to 9 mg/kg, ip qd administered for 5 days by Western blot analysis; type: functional, organism-based; conditions: dose 1-9 mg/kg, time 5.0 day
Chain of Exportin-1 (Mus musculus) (Q6P5F9 whole entry): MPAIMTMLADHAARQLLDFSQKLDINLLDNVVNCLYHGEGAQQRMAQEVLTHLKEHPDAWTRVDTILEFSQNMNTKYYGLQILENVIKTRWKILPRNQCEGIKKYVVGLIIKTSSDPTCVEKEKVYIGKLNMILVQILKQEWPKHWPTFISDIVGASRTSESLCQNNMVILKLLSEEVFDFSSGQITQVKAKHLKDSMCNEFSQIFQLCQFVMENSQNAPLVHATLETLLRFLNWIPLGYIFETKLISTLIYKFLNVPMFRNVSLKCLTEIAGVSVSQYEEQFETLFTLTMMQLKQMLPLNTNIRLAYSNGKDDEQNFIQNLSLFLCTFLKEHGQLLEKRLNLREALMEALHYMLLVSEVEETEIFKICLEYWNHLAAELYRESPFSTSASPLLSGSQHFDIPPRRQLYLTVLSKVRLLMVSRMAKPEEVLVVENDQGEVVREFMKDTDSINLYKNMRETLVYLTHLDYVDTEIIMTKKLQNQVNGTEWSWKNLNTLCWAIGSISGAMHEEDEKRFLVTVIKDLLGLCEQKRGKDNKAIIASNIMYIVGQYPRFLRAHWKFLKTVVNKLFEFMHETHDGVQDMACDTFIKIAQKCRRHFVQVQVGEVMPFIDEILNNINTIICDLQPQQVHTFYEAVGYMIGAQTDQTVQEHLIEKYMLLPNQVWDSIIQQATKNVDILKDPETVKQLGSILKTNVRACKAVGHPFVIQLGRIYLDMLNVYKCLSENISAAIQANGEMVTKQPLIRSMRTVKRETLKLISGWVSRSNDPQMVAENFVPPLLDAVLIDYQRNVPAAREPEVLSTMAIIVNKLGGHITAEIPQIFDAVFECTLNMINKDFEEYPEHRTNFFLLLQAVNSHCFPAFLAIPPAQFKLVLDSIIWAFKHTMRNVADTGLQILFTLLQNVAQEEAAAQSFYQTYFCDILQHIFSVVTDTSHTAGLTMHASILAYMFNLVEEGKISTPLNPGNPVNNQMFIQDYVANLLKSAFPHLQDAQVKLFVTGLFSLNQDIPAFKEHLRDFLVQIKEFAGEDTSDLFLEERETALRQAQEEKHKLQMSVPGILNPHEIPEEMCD

[8] = target: Exportin-1 (Mus musculus) (UniProt Q6P5F9); assay: In vivo binding affinity to XPO1 in mouse liver at 1 to 9 mg/kg, ip qd administered for 5 days by Western blot analysis; type: functional, organism-based; conditions: dose 1-9 mg/kg, time 5.0 day
[9] = target: Exportin-1 (Mus musculus) (UniProt Q6P5F9); assay: In vivo binding affinity to XPO1 in mouse kidney at 1 to 9 mg/kg, ip qd administered for 5 days by Western blot analysis; type: functional, organism-based; conditions: dose 1-9 mg/kg, time 5.0 day
[10] = Toxicity in mouse assessed as neutropenia at 10 mg/kg, ip administered daily for 5 days by CBC analysis; type: organism-based; conditions: in vivo, 120 h, time 5 day
[11] = Toxicity in mouse assessed as leukopenia at 10 mg/kg, ip administered daily for 5 days by CBC analysis; type: organism-based; conditions: in vivo, 120 h, time 5 day
Mus musculus [12] = assay: Anti-inflammatory activity in irradiated BALB/c mouse transplanted with bone marrow/splenic T-cells from C57BL/6 mouse assessed as reduction in animal lethality at 10 mg/kg, ip administered daily measured for 8 days; type: functional, organism-based; conditions: time 8.0 day
Jurkat [13] = assay: Downregulation of IL-2 mRNA level in PMA/ionomycin-activated human Jurkat cells expressing XPO1 C528S mutant at 10 nM incubated for 6 hrs by RT-qPCR analysis; type: functional, cell-based
Jurkat [14] = assay: Cytotoxicity against human Jurkat cells expressing XPO1 C528S mutant assessed as suppression of cell viability up to 100 nM incubated for 24 hrs by CellTiter-Glo assay; type: functional, cell-based
[15] = Metabolic stability in mouse liver microsome assessed as half life; type: ADME; conditions: liver microsomes
[16] = Metabolic stability in mouse liver microsome assessed as intrinsic clearance; type: ADME; conditions: liver microsomes, read-out: CLH
Mus musculus [17] = assay: Suppression of T-cell activation in irradiated BALB/c mouse transplanted with bone marrow/splenic T-cells from C57BL/6 mouse assessed as downregulation of IFNG in host spleen at 10 mg/kg, ip administered daily for 7 days by RT-qPCR analysis; type: functional, organism-based; conditions: time 7.0 day
Mus musculus [18] = assay: Suppression of T-cell activation in irradiated BALB/c mouse transplanted with bone marrow/splenic T-cells from C57BL/6 mouse assessed as downregulation of CSF2 in host spleen at 10 mg/kg, ip administered daily for 7 days by RT-qPCR analysis; type: functional, organism-based; conditions: time 7.0 day
Mus musculus [19] = assay: Anti-inflammatory activity in irradiated BALB/c mouse transplanted with bone marrow/splenic T-cells from C57BL/6 mouse assessed as suppression of CD3 positive T-cell infiltration in host liver at 10 mg/kg, ip qd administered daily for 7 days by IHC analysis; type: functional, organism-based; conditions: time 7.0 day
Mus musculus [20] = assay: Anti-inflammatory activity in irradiated BALB/c mouse transplanted with bone marrow/splenic T-cells from C57BL/6 mouse assessed as suppression of IFNG mRNA level in host spleen administered as ip dose for 7 days by RT-qPCR analysis; type: functional, organism-based; conditions: dose 10-100 mg/kg, time 7.0 day
Mus musculus [21] = assay: Anti-inflammatory activity in irradiated BALB/c mouse transplanted with bone marrow/splenic T-cells from C57BL/6 mouse assessed as suppression of CSF2 mRNA level in host spleen administered as ip dose for 7 days by RT-qPCR analysis; type: functional, organism-based; conditions: dose 10-100 mg/kg, time 7.0 day
Mus musculus [22] = assay: Anti-inflammatory activity in irradiated BALB/c mouse transplanted with bone marrow/splenic T-cells from C57BL/6 mouse assessed as increase in CD3 positive CD4 positive T cells in host spleen at 1 to 10 mg/kg, ip administered for 7 days by flow cytometry analysis; type: functional, organism-based; conditions: dose 1-10 mg/kg, time 7.0 day
Mus musculus [23] = assay: Anti-inflammatory activity in irradiated BALB/c mouse transplanted with bone marrow/splenic T-cells from C57BL/6 mouse assessed as decrease in CD3 positive CD8 positive T cells in host spleen at 1 to 10 mg/kg, ip administered for 7 days by flow cytometry analysis; type: functional, organism-based; conditions: dose 1-10 mg/kg, time 7.0 day
Mus musculus [24] = assay: Anti-inflammatory activity in irradiated BALB/c mouse transplanted with bone marrow/splenic T-cells from C57BL/6 mouse assessed as improvement in animal survival at 3 mg/kg, ip administered daily for 21 days; type: functional, organism-based; conditions: time 21.0 day
Exportin-1 [25] = target: T1, Exportin-1; assay: Inhibition of selinexor-alkyne binding to XPO1 at Cys528 in human Jurkat cells up to 300 nM pretreated for 1 hr followed by addition of selinexor-alkyne measured after 1 hr by In-gel fluorescence analysis; type: cell-based; conditions: time 2.0 hrs
Jurkat [26] = assay: Downregulation of IL-2 mRNA level in PMA/ionomycin-activated human Jurkat cells expressing XPO1 C528S mutant at 200 nM incubated for 6 hrs by RT-qPCR analysis; type: functional, cell-based
Jurkat [27] = assay: Cytotoxicity against human Jurkat cells expressing XPO1 C528S mutant assessed as suppression of cell viability up to 1000 nM incubated for 24 hrs by CellTiter-Glo assay; type: functional, cell-based
[28] = Drug exposure in mouse administered intraperitoneally; type: ADME; conditions: in vivo, ip
Mus musculus [29] = assay: Anti-inflammatory activity in irradiated BALB/c mouse transplanted with bone marrow/splenic T-cells from C57BL/6 mouse assessed as suppression of CCL3 mRNA level in host spleen administered as ip dose for 7 days by RT-qPCR analysis; type: functional, organism-based; conditions: dose 10-100 mg/kg, time 7.0 day
Mus musculus [30] = assay: Anti-inflammatory activity in irradiated BALB/c mouse transplanted with bone marrow/splenic T-cells from C57BL/6 mouse assessed as suppression of TNF mRNA level in host spleen administered as ip dose for 7 days by RT-qPCR analysis; type: functional, organism-based; conditions: dose 10-100 mg/kg, time 7.0 day
Mus musculus [31] = assay: Anti-inflammatory activity in irradiated BALB/c mouse transplanted with bone marrow/splenic T-cells from C57BL/6 mouse assessed as healthy appearance of animal at 1 to 10 mg/kg, ip administered for 7 days; type: functional, organism-based; conditions: dose 1-10 mg/kg, time 7.0 day
Mus musculus [32] = assay: Anti-inflammatory activity in irradiated BALB/c mouse transplanted with bone marrow/splenic T-cells from C57BL/6 mouse assessed as active behaviour of animal at 1 to 10 mg/kg, ip administered for 7 days; type: functional, organism-based; conditions: dose 1-10 mg/kg, time 7.0 day
[33] = Toxicity in irradiated BALB/c mouse transplanted with bone marrow/splenic T-cells from C57BL/6 mouse assessed as drug tolerance at 3 mg/kg, ip administered daily for 21 days; type: organism-based; conditions: in vivo, 504 h, time 21 day
Exportin-1 [34] = target: T1, Exportin-1; assay: Covalent binding affinity to XPO1 in human Jurkat cells at 0.6 to 123 nM by In-gel fluorescence analysis; type: cell-based; conditions: dose 0.6-123 nM
[35] = target: Exportin-1 (Mus musculus) (UniProt Q6P5F9); assay: In vivo binding affinity to XPO1 in mouse spleen at 10 mg/kg, ip qd administered for 5 days by Western blot analysis; type: functional, organism-based; conditions: time 5.0 day
[36] = target: Exportin-1 (Mus musculus) (UniProt Q6P5F9); assay: In vivo binding affinity to XPO1 in mouse liver at 10 mg/kg, ip qd administered for 5 days by Western blot analysis; type: functional, organism-based; conditions: time 5.0 day
[37] = target: Exportin-1 (Mus musculus) (UniProt Q6P5F9); assay: In vivo binding affinity to XPO1 in mouse kidney at 10 mg/kg, ip qd administered for 5 days by Western blot analysis; type: functional, organism-based; conditions: time 5.0 day

Structure (SMILES): C#Cc1cc2c(NN3C(=O)C=C(C)C3=O)nc(C(F)(F)F)nn2c1
- Activity (Exportin-1 [6]): Active
- Activity [7]: Active
- Activity [8]: Active
- Activity [9]: Active

Structure (SMILES): O=C(/C=C\n1cnc(-c2cc(C(F)(F)F)cc(C(F)(F)F)c2)n1)NNc1cnccn1 [SELINEXOR]
- Activity [10]: Toxic
- Activity [11]: Toxic
- Activity (Mus musculus [12]): inactive

Structure (SMILES): CC1=CC(=O)N(Nc2nc(C(F)(F)F)nn3cccc23)C1=O
- EC50 (Exportin-1 [1]): 31 nM
- EC50 (Jurkat [2]): 270 nM
- selectivity ratio (XPO1): 8.7
- half-life [15]: > 60 min
- microsomal CLint [16]: < 23 µL/min/mg
- Activity (Mus musculus [17]): Active; Compound Showed Stronger Effect Than Sp100030
- Activity (Mus musculus [18]): Active; Compound Showed Stronger Effect Than Sp100030
- Activity (Mus musculus [19]): Active
- Activity (Mus musculus [20]): Dose-dependent-effect
- Activity (Mus musculus [21]): Dose-dependent-effect
- Activity (Mus musculus [22]): Active
- Activity (Mus musculus [23]): Active
- Activity (Mus musculus [24]): Active
- Activity [10]: Non-toxic
- Activity [11]: Non-toxic
- inhibition (Exportin-1 [25]): Active
- Activity (Jurkat [26]): inactive
- Activity (Jurkat [27]): inactive
- Drug uptake [28]: Active
- Activity (Mus musculus [29]): Dose-dependent-effect
- Activity (Mus musculus [30]): Dose-dependent-effect
- Activity (Mus musculus [31]): Active
- Activity (Mus musculus [32]): Active
- Activity [33]: Non-toxic

Structure (SMILES): C#Cc1cc(NN2C(=O)C=C(C)C2=O)cc(C(F)(F)F)c1
- Activity (Exportin-1 [34]): Active
- Activity [35]: Active
- Activity [36]: Active
- Activity [37]: Active

Further lines, with some results ahead:

- EC50 (Exportin-1 [1]): 8.3 nM
- inhibition (Exportin-1 [5]): Active
Structure (SMILES): CC1=CC(=O)N(Nc2ccc(C(F)(F)F)c(N(C)C)n2)C1=O
- EC50 (Jurkat [2]): 696 nM
- selectivity ratio (XPO1): 83.9
- Activity (Jurkat [3]): inactive
- Activity (Jurkat [4]): Active

- EC50 (Exportin-1 [1]): 1 nM
- half-life [15]: < 10 min
- microsomal CLint [16]: > 139 µL/min/mg
- inhibition (Exportin-1 [5]): Active
Structure (SMILES): CC1=CC(=O)N(Nc2ccc(C(F)(F)F)c(N3CC4CC4C3)n2)C1=O (centres undefined)
- EC50 (Jurkat [2]): 30.4 nM
- selectivity ratio (XPO1): 30.4
- Activity (Jurkat [13]): inactive
- Activity (Jurkat [14]): Active
